Experimental data published in patent publication US9511052B2, “Mineralocorticoid receptor antagonists” (Merck Sharp & Dohme Corp., priority 2012, dated 2016).

How the values were obtained:
[1] = PK profile in rats; type: in vivo, rat; conditions: for bioavailability / clearance / half-life: rat, in vivo; for bioavailability: oral
[2] = Hepatocyte stability, human; type: in vitro ADME; conditions: human, hepatocytes; read-out: Hepatocyte Stability (t1/2)
[3] = Hepatocyte stability, rat; type: in vitro ADME; conditions: hepatocytes, read-out: Hepatocyte Stability (t1/2)
[4] = Liver microsome stability, rhesus monkey; type: in vitro ADME; conditions: liver microsomes, read-out: Liver Microsome Stability (t1/2)
[5] = Liver microsome stability, dog; type: in vitro ADME; conditions: liver microsomes, read-out: Liver Microsome Stability (t1/2)
[6] = Liver microsome stability, human; type: in vitro ADME; conditions: for Liver Microsome Stability (t1/2): Human; for half-life: human, liver microsomes, read-out: Liver Microsome Stability (t1/2)
[7] = Metabolic stability in liver microsome and hepatocytes of multiple animal species (overall statement); type: in vitro ADME
[8] = biological target: T1, full-length human Mineralocorticoid Receptor (MR) (Homo sapiens, UniProt P08235); assay: human MR NH Pro assay (PathHunter Protein:Protein interaction assay), MR antagonism; type: cell-based; conditions: IP = inflection point of the dose-response curve; CHO-K1 cells overexpressing human MR, aldosterone about 0.3 nM to about 1 nM, 6 hours at 37° C.
T1 construct: host or cells: PathHunter CHO-K1 MR cells
T1 sequence (P08235 1-984): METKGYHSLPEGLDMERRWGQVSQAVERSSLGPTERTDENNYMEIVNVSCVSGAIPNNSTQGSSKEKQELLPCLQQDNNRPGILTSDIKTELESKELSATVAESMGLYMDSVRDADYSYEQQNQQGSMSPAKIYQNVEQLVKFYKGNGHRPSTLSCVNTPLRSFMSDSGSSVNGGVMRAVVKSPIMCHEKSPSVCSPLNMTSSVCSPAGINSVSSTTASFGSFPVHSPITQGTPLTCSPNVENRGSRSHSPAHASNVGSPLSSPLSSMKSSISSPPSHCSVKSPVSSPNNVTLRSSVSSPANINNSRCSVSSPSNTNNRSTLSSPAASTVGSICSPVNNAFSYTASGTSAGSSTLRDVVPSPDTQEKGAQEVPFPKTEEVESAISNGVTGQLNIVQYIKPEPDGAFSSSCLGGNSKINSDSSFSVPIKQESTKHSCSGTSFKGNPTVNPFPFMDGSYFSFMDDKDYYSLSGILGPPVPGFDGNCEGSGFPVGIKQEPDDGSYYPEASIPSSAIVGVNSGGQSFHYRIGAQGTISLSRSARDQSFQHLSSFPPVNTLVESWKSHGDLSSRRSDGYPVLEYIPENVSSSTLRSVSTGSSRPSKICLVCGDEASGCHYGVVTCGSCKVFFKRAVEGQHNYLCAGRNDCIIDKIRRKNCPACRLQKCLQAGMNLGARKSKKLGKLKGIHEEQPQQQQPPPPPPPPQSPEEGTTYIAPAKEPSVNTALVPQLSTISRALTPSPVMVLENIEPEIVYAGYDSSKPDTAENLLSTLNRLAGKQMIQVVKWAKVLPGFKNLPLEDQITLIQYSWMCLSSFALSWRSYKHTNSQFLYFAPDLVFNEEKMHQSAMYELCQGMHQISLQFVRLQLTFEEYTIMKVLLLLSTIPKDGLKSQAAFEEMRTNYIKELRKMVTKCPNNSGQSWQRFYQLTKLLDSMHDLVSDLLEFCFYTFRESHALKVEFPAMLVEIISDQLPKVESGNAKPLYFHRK
How it was run: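 PathHunter CHO-K1 MR cells (10K/well) plated overnight at 37°C, 5% CO2, then exposed 6 h to a 10-point titration starting at 36.7 μM final, in duplicate, DMSO <1%. MR–coactivator peptide interaction read by luminescence after 1 h with DiscoveRx detection reagent at room temperature.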

[9] = Hepatocyte stability, dog; type: in vitro ADME; conditions: hepatocytes, read-out: Hepatocyte Stability (t1/2)
[10] = Liver microsome stability, rat; type: in vitro ADME; conditions: liver microsomes, read-out: Liver Microsome Stability (t1/2)
[11] = Hepatocyte stability, rhesus monkey; type: in vitro ADME; conditions: hepatocytes, read-out: Hepatocyte Stability (t1/2)

| Cl [1] | PK profile in rats (in words) [1] | t1/2 [1] | AUCN po [1] | bioavailability [1] | half-life [2] | half-life [3] | half-life [4] | half-life [5] | Liver Microsome Stability (t1/2) [6] | metabolic stability in liver microsome and hepatocytes of multiple animal species (in words) [7] | IC50 [8] | half-life [9] | half-life [10] | half-life [11] | clearance [1] | half-life [1] | half-life [6] | SMILES |
| --- | --- | --- | --- | --- | --- | --- | --- | --- | --- | --- | --- | --- | --- | --- | --- | --- | --- | --- |
| 24 mL/min/kg | good PK profile | 5.3 h | 1.3 µM·kg·h/mg | 76% | > 90 min | > 90 min | 61 min | 65 min | 72 min | good metabolic stability | 4 nM | 48 min | 61 min | > 90 min |  |  |  | CCC(O)C(CC)(c1ccc(C(F)(F)F)cc1)n1ncc2c(NS(C)(=O)=O)cccc21 (single isomer, unassigned) [Compound 9, N-(1-(4-hydroxy-3-(4-(trifluoromethyl)phenyl)hexan-3-yl)-1H-indazol-4-yl)methanesulfonamide] |
|  | good PK profile |  | 4.0 µM·kg·h/mg | 92% | 90 min | > 90 min | 67 min | 128 min |  | excellent metabolic stability | 51 nM | 73 min | 234 min | > 90 min | 8.4 mL/min/kg | 312 min | 156 min | CCC(c1ccc(C(F)(F)F)cc1)(C(C)O)n1ncc2c(NS(C)(=O)=O)cc(F)cc21 (single isomer, unassigned) [Compound 31, N-(6-fluoro-1-(2-hydroxy-3-(4-(trifluoromethyl)phenyl)pentan-3-yl)-1H-indazol-4-yl)methanesulfonamide] |
|  | good PK profile |  | 1.9 µM·kg·h/mg | 31% | > 90 min | > 90 min | 92 min | 135 min |  | good metabolic stability | 76 nM | > 90 min | 97 min | > 90 min | 6.2 mL/min/kg | 252 min | 138 min | CS(=O)(=O)Nc1cccc2c1cnn2C(CC(F)F)(C(N)=O)c1ccc(C(F)(F)F)cc1 (single isomer, unassigned) [Compound 46, 4,4-difluoro-2-(4-(methylsulfonamido)-1H-indazol-1-yl)-2-(4-(trifluoromethyl)phenyl)butanamide] |
| 3.8 mL/min/kg | good PK profile | 9.9 h | 8.9 µM·kg·h/mg | 77% | > 90 min | > 90 min | 42 min | 162 min | 62 min | good metabolic stability | 11 nM | > 90 min | 154 min | > 90 min |  |  |  | CCC(c1ccc(C(F)(F)F)cc1)(C(O)C(F)F)n1ncc2c(NS(C)(=O)=O)cccc21 (single isomer, unassigned) [Compound 47, N-(1-(1,1-difluoro-2-hydroxy-3-(4-(trifluoromethyl)phenyl)pentan-3-yl)-1H-indazol-4-yl)methanesulfonamide] |
